Results as given in US7138361B2, “Herbicidal heterocycles” (E. I. du Pont de Nemours and Company, priority 2000, dated 2006).

What was measured:
Type in all cases: in vivo
[1] = system: lambsquarters (Chenopodium album); test: Test B postemergence; details: Rate 125 g/ha, scale 0 to 100, 0 no effect, 100 complete control
In short: (§1)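 Greenhouse test: chemicals are formulated in a surfactant-containing non-phytotoxic solvent and applied either preemergence to planted seeds or postemergence to plants 2 to 18 cm tall. Response is rated visually versus controls after 13 to 15 days, 0 meaning no effect and 100 complete control.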

[2] = system: Surinam grass (Brachiaria decumbens); test: Test B postemergence
In short: as §1

[3] = system: velvetleaf (Abutilon theophrasti); test: Test B postemergence; details: Rate 125 g/ha, scale 0 to 100, 0 no effect, 100 complete control
In short: as §1

[4] = system: barnyardgrass (Echinochloa crus-galli); test: Test B postemergence
In short: as §1

corn (Zea mays) [5] = test: Test B postemergence
In short: as §1

[6] = system: morning glory (Ipomoea hederacea); test: Test B postemergence; details: Rate 125 g/ha, scale 0 to 100, 0 no effect, 100 complete control
In short: as §1

[7] = system: lambsquarters (Chenopodium album); test: Test C preemergence
In short: (§2)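 Plants held in greenhouse for 12–14 days post-application are scored by eye against controls on a 0–100 control scale. Application timing: preemergence on sown seed, or postemergence on 2–18 cm plants.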

[8] = system: crabgrass (Digitaria sanguinalis); test: Test C preemergence
In short: as §2

[9] = system: Surinam grass (Brachiaria decumbens); test: Test C preemergence
In short: as §2

Nightshade = test: Test C preemergence
[10] = system: velvetleaf (Abutilon theophrasti); test: Test C preemergence
In short: as §2

[11] = system: johnsongrass (Sorghum halepense); test: Test C preemergence
In short: as §2

corn (Zea mays) [12] = test: Test C preemergence
In short: as §2

kochia (Kochia scoparia) = test: Test C preemergence
In short: as §2

[13] = system: morningglory (Ipomoea hederacea); test: Test C preemergence
In short: as §2

[14] = system: cocklebur (Xanthium strumarium); test: Test C preemergence; details: preemergence
In short: as §2

[15] = system: common ragweed (Ambrosia elatior); test: Test C preemergence
In short: as §2

soybean (Glycine max) = test: Test C preemergence
In short: as §2

[16] = system: goosegrass (Eleusine indica); test: Test C preemergence
In short: as §2

[17] = system: woolly cupgrass (Eriochloa villosa); test: Test C preemergence
In short: as §2

[18] = Rate 125 g/ha, scale 0 to 100, 0 no effect, 100 complete control
[19] = Rate 500 g/ha, scale 0 to 100, 0 is no effect, 100 is complete control, 13 to 15 days
[20] = preemergence, Rate 62 g/ha, scale 0 to 100
[21] = preemergence, Rate 500 g/ha, visual evaluation after 12 to 14 days
[22] = preemergence, Rate 250 g/ha, scale 0 to 100, 0 no effect, 100 complete control
[23] = Rate 250 g/ha, scale 0 to 100, 0 no effect, 100 complete control

CCC(C)c1ccn(C2CCN(c3ccc(Cl)c(OC)c3)C2=O)n1 (centres unmarked) [Compound 119]
Plant response rating, Lambsquarters [1]: 90 | Plant response rating, Surinam grass [2, 18]: 20 | Plant response rating, Surinam grass [2, 19]: 50 | Plant response rating, Velvetleaf [3]: 30 | Plant response rating, Barnyardgrass [4, 18]: 30 | Plant response rating, Barnyardgrass [4, 19]: 100 | Plant response rating, Corn (corn (Zea mays) [5]; [18]): 0 | Plant response rating, Corn (corn (Zea mays) [5]; [19]): 0 | Plant response rating, Morningglory [6]: 30 | Plant response rating, Lambsquarters [7, 18]: 100 | Plant response rating, Lambsquarters [7, 20]: 100 | Plant response rating (0 to 100), Lambsquarters [7, 21]: 100 | Plant response rating, Lambsquarters [7, 22]: 100 | Plant response rating, Crabgrass [8, 18]: 100 | Plant response rating, Crabgrass [8, 20]: 100 | Plant response rating (0 to 100), Crabgrass [8, 21]: 100 | Plant response rating, Crabgrass [8, 22]: 100 | Plant response rating, Surinam grass [9, 18]: 100 | Plant response rating, Surinam grass [9, 20]: 100 | Plant response rating (0 to 100), Surinam grass [9, 21]: 100 | Plant response rating, Surinam grass [9, 22]: 100 | Plant response rating, Nightshade (Nightshade; Rate 62 g/ha, scale 0 to 100): 100 | Plant response rating, Nightshade (Nightshade; [18]): 100 | Plant response rating, Nightshade (Nightshade; [23]): 100 | Plant response rating, Velvetleaf [10, 18]: 100 | Plant response rating, Velvetleaf [10, 20]: 60 | Plant response rating (0 to 100), Velvetleaf [10, 21]: 100 | Plant response rating, Velvetleaf [10, 22]: 100 | Plant response rating, Johnsongrass [11, 18]: 100 | Plant response rating, Johnsongrass [11, 20]: 90 | Plant response rating (0 to 100), Johnsongrass [11, 21]: 100 | Plant response rating, Johnsongrass [11, 22]: 100 | Plant response rating, Corn (corn (Zea mays) [12]; [18]): 30 | Plant response rating, Corn (corn (Zea mays) [12]; [20]): 30 | Plant response rating (0 to 100), Corn (corn (Zea mays) [12]; [21]): 90 | Plant response rating, Corn (corn (Zea mays) [12]; [22]): 60 | Plant response rating, Kochia (kochia (Kochia scoparia); [18]): 100 | Plant response rating, Kochia (kochia (Kochia scoparia); [20]): 100 | Plant response rating (0 to 100), Kochia (kochia (Kochia scoparia); [21]): 100 | Plant response rating, Kochia (kochia (Kochia scoparia); [22]): 100 | Plant response rating, Morningglory [13, 18]: 90 | Plant response rating, Morningglory [13, 20]: 60 | Plant response rating (0 to 100), Morningglory [13, 21]: 100 | Plant response rating, Morningglory [13, 22]: 100 | Plant response rating (0 to 100), Cocklebur ([14]; Rate 500 g/ha, visual evaluation after 12 to 14 days): 50 | Plant response rating, Cocklebur [14, 23]: 20 | Plant response rating, Ragweed, Common [15, 18]: 100 | Plant response rating, Ragweed, Common [15, 20]: 100 | Plant response rating (0 to 100), Ragweed, Common [15, 21]: 100 | Plant response rating, Ragweed, Common [15, 22]: 100 | Plant response rating, Soybean (soybean (Glycine max); [18]): 80 | Plant response rating, Soybean (soybean (Glycine max); [20]): 60 | Plant response rating (0 to 100), Soybean (soybean (Glycine max); [21]): 100 | Plant response rating, Soybean (soybean (Glycine max); [22]): 100 | Plant response rating, Goosegrass [16, 18]: 100 | Plant response rating, Goosegrass [16, 20]: 100 | Plant response rating (0 to 100), Goosegrass [16, 21]: 100 | Plant response rating, Goosegrass [16, 22]: 100 | Plant response rating, Cupgrass, Woolly [17, 18]: 100 | Plant response rating, Cupgrass, Woolly [17, 20]: 100 | Plant response rating (0 to 100), Cupgrass, Woolly [17, 21]: 100 | Plant response rating, Cupgrass, Woolly [17, 22]: 100
